The results in this text go back to patent publication US12115152B2, “Pan-RAF kinase inhibitor and use thereof” (HEFEI INSTITUTES OF PHYSICAL SCIENCE, CHINESE ACADEMY OF …, priority 2019, dated 2024).

Holding throughout (format): cell-based
The subject of assay [1] is human acute leukemia cell NB4 (expressing KRAS-A18D mutant kinase). The assay can be described thus: Effect on proliferation of cancer cells, Cell Titer-Glo, 72 hours. The following applies: NB-4. Here is the method:
(§1) The compounds of the present invention were tested for their effect on growth of cancer cells (Table 2), to further evaluate the compounds herein for their inhibitory effect on proliferation of cancer cells and their selectivity in inhibiting proliferation of cancer cells.
(§2) The above-mentioned BaF3-FL-BRAF-V600E mutant cell line was constructed by the method as follows. The sequence of human full-length BRAF-V600E mutant kinase region was amplified by PCR, inserted into a MSCV-Puro vector (purchased from Clontech), and stably transfected into mouse BaF3 cells by the retroviral method, and the growth factor IL-3 was removed. Eventually, a cell line dependent on a full-length BRAF-V600E protein having various mutation transferred was obtained.
(§3) In the example, solutions of the test compound in DMSO at different concentrations (0.000508 μM, 0.00152 μM, 0.00457 μM, 0.0137 μM, 0.0411 μM, 0.123 μM, 0.370 μM, 1.11 μM, 3.33 μM, 10 μM) was added to the above cells respectively. The cells were incubated for 72 hours. The number of viable cells was detected with a Cell Titer-Glo (Promega, USA) Cell Viability Assay Kit by quantifying the ATP in viable cells. The values of GI50 (unit) of the compounds of the present invention against each of the test cells were determined.
Background: ATP-based viability assays read luminescence as a measure of living cells.

Assay [2] has as its system human acute leukemia cell OCI-AML-3 (expressing NRAS-Q61L mutant kinase). The description is as above. The following applies: OCI-AML-3 cells. How it is done:
as §1, §2, §3

Assay [3] in a line: Effect on proliferation of cells, Cell Titer-Glo, 72 hours. The following applies: Mus musculus, BaF3 cells. How it is done: The compounds of the present invention were tested for their effect on growth of cancer cells (Table 2), to further evaluate the compounds herein for their inhibitory effect on proliferation of cancer cells and their selectivity in inhibiting proliferation of cancer cells. […]
as §3

For assay [4], the system named is mouse BaF3-FL-BRAF-V600E (stably expressing full-length BRAF-V600E mutant kinase). The assay can be described thus: Effect on proliferation of cancer cells, Cell Titer-Glo, 72 hours. Here is the method: as §1
(§4) The cells were incubated for 72 hours. The number of viable cells was detected with a Cell Titer-Glo (Promega, USA) Cell Viability Assay Kit by quantifying the ATP in viable cells. The values of GI50 (unit) of the compounds of the present invention against each of the test cells were determined.

Assay [5] has as its system melanoma cell A375 (expressing BRAF-V600E mutant kinase). Described as above. To be noted: Homo sapiens, A-375. Here is the method: as §1, §4
Assay [6] deals with colorectal cancer cell COLO205 (expressing BRAF-V600E mutant kinase). The description is as above. To be noted: Homo sapiens, COLO 205. Here is the method: as §1, §4

Usually GI50 stands for the concentration that inhibits growth by half. Higher therefore signals lower sensitivity of the cells. In the case of `Cc1ccc(NC(=O)c2cccc(C(F)(F)F)c2)cc1-n1cc(-c2cncc(N3CCNCC3)c2)cn1` [Example 164, N-(4-methyl-3-(4-(5-(piperizan-1-yl)pyrid-3-yl)-1H-pyrazol-1-yl)phenyl)-3-(trifluoromethyl)benzamide], the GI50 in assay [1] stood at 0.035 µM; in assay [2] it was 0.0091 µM; in assay [3], 1.6 µM; in assay [4] it was 0.004 µM; in assay [5], 0.12 µM; in assay [6], 0.071 µM.
`Cc1ccc(NC(=O)c2cccc(C(C)(C)C#N)c2)cc1-n1cc(-c2cnccc2OCCCO)cn1` [Example 161, 3-(2-cyanoprop-2-yl)-N-(3-(4-(4-(3-hydorxypropoxy)pyrid-3-yl)-1H-pyrazol-1-yl)-4-methylphenyl)benzamide]: the GI50 in assay [1] came to 0.095 µM; in assay [2], 0.012 µM; in assay [3], 3.6 µM; in assay [4] it was 0.0023 µM; in assay [5] it was 0.014 µM; in assay [6], 0.055 µM.
For the compound `Cc1ccc(NC(=O)c2cccc(C(F)(F)F)c2)cc1-n1cc(-c2cnccc2OCCCCO)cn1` [Example 166, N-(3-(4-(4-(4-hydroxybutoxy)pyrid-3-yl)-1H-pyrazol-1-yl)-4-methylphenyl)-3-(trifluoromethyl)benzamide], the GI50 in assay [1] stood at 0.069 µM; in assay [2], 0.019 µM; in assay [3], 2.6 µM; in assay [4] it was 0.001 µM; in assay [5], 0.077 µM; in assay [6], 0.094 µM.
With `Cc1ccc(NC(=O)c2cccc(C(F)(F)F)c2)cc1-n1cc(-c2cnccc2OCCCO)cn1` [Example 162, N-(3-(4-(4-(3-hydoxypropoxy)pyrid-3-yl)-1H-pyrazol-1-yl)-4-methylphenyl)-3-(trifluoromethyl)benzamide], the GI50 in assay [1] stood at 0.061 µM; in assay [2] it was 0.011 µM; in assay [3], 5 µM; in assay [4], 0.0039 µM; in assay [5], 0.032 µM; in assay [6], 0.039 µM.
